According to patent US5016655A, “Cigarette manufacturing process” (priority 1989, dated 1991):
Entries after “also recorded” stand apart in the source; their conditions may differ. Read-outs that look alike come from different tables or passages of the source.

What was measured:
[1] = test system: localization of radioactivity ([14C]NNN) in bronchial epithelium; assay: effect of substances on localization of radioactivity one hour after intravenous [14C]NNN (Table VI); type: in vivo, mice; details: for response on the uptake of radioactivity in the bronchial epithelium / decrease in the localization of radioactivity in bronchial epithelium: solids at ambient temperature; for decrease in the localization of radioactivity in bronchial epithelium: one hour after intravenous [14C]NNN
Description: Table VI below lists the compounds tested for their effect on the localization of radioactivity in bronchial epithelium one hour after intravenous administration of [^14 C]NNN. Unless indicated otherwise, the compounds were parenterally administered acutely at various times prior to [^14 C]NNN. In many cases only one mouse was studied for each compound. […].
Effect of substances on the localization of radioactivity in bronchial epithelium of mice one hour after intravenously receiving [^14 C] nitrosonornicotine.
For all the remaining compounds the general protocol was to administer the potential blocker some minutes prior to administration of the [^14 C]NNN. Potential blockers were given orally, intraperitoneally or by inhalation, and the [^14 C]NNN was given intravenously.

[2] = test system: localization of nitrosamines (NNN, NNK) in tissues; assay: nitrosamine delocalization / blocking, general statements; details: in vivo
human = details: cited from earlier work
[3] = test system: localization of radioactivity ([14C]NNN) in bronchial epithelium; assay: orally administered alcohols, localization of radioactivity after intravenous [14C]NNN; type: in vivo, mice; details: gavage 1.0 g/kg, 20 min before iv [14C]NNN
Experimental: For each of these alcohols, the mouse was fasted overnight, the alcohol in aqueous solution at a dose of 1.0 g/kg was administered by gavage and after twenty minutes the [^14 C]NNN was injected intravenously. All mice were sacrificed one hour after the [^14 C]NNN treatment and processed for whole-body autoradiography,as described previously.

[4] = cited from earlier work; for Boiling Point: Table V
rats = details: cited from earlier work
[5] = test system: localization of radioactivity of [14C]NNN in bronchial epithelium; assay: alcohols by inhalation, localization of radioactivity of [14C]NNN (Table VII); type: in vivo, mice; details: for potency as inhibitor in mice: mouse, in vivo
Experimental: Additional alcohols were tested for their effects on the localization of radioactivity of [^14 C]NNN in bronchial epithelium when the alcohols were administered by inhalation. For these studies, two ml of the alcohol were placed in the bottom of a 600 ml glass beaker. A wire mesh platform was constructed so that the mouse was positioned approximately three-quarter to one inch above the alcohol. The beaker was kept tightly sealed unless otherwise indicated. All mice were fasted overnight, except where noted, and sacrificed one hour after intravenous [^14 C]NNN administration. These mice were also processed for whole-body autoradiography. Although the protocols varied slightly as summarized below, these minor differences should not effect the results.
A. Exposures in beakers maintained at 50° C. (plus or minus
B. Exposure in beakers at room temperature. Beakers were
C. Beakers equilibrated with alcohols at least 20 min in […]

[6] = test system: localization of radioactivity ([14C]NNN) in salivary duct and bronchial epithelium and liver; assay: whole-body autoradiography of [14C]NNN localization after oral alcohols (Example 1, FIG. 1); type: in vivo, male C57BL/6J mice
Experimental: One hour later, the mice were anesthetized lightly with ether and frozen by immersion in dry ice/hexane. Twenty u-thick whole-body sagittal sections of the frozen mice were taken onto Scotch tape and were then processed for whole-body autoradiography by known methods. See W. Waddell et al., Drug Fate and Metabolism: Methods and Techniques, E. R. Garrett and J. L. Hirtz, Eds. […] Photometric density in areas of the developed autoradiographs was measured with an ADG Instruments photometer and a photocell with an aperture of three mm lying on the easel of a photographic enlarger. The X-ray film was placed in the enlarger and raised to produce a magnification of thirty-five times on the easel.
NNN. […] (Twenty minutes is the average time it takes for alcohols introduced by oral intubation into mice to reach the peak blood level.)
The number within each bar thereof represents the dose in g/kg of that alcohol which was administered orally twenty minutes before the [^14 C] NNN was given intraveously. The mice were frozen one hour after receiving the [^14 C] NNN. The means for each mouse were from fifteen measurements on random areas of that site (five absorbancies on each of three autoradiographs) after setting blood in each on zero.

[7] = test system: nitrosamine formation on epithelial membranes; tumor development; details: cited from earlier work

For c1cn[nH]c1 [pyrazole], the “response on the uptake of radioactivity in the bronchial epithelium” value (from here on “response on the uptake of radioactivity”) [1] was “minimal response” and the “nitrosamine delocalization / inhibition of nitrosamine localization” value (shortened to “nitrosamine delocalization / inhibition”) [2] was “found to delocalize nitrosamines”.

In the case of CCCCCCCCCO [n-Nonyl alcohol], the “Toxicity” value (human; Table V) is listed as “Low-toxicity”.

With CCC(C)O (centres unmarked) [sec-butyl alcohol, sec-butanol] the “decrease in the localization of radioactivity in bronchial epithelium” value (“decrease in the localization” below) [3] was “significant decrease”.

In the case of CCCCCCCCCCO [n-Decyl alcohol], the “Toxicity” value (human; Table V) is given as “Low-toxicity” and the “Boiling Point” value [4] is given as 210 °C.

For CC(C)CCO [isoamyl alcohol], the “Acute Oral LD50” value (rats; rats, oral) is given as 1.30 q/kg and the “decrease in the localization” value [3] is given as “significant decrease”.

For Methyl cyclohexanol, the “Boiling Point” value [4] is given as 173 °C.

In the case of CCCCCCCCCCCCCCCCO [Cetyl alcohol, hexadecanol], the “Toxicity” value (human; Table V) is listed as “Non-toxic”, the “Toxicity” value (human) is listed as “non-toxic” and the “Boiling Point” value [4] is listed as 344 °C.

In the case of CCCO [propyl alcohol, n-propanol], the “Acute Oral LD50” value (rats; rats, oral) is listed as 5.4 q/kg.

For CCCCCCO [1-hexanol], the “potency as inhibitor in mice” value [5] was “among the most potent inhibitors”.

In the case of CC(O)CCO (centres unmarked) [1,3 Butanediol], the “Toxicity” value (human; Table V) is listed as “Non-toxic” and the “Boiling Point” value [4] is listed as 207 °C.

In the case of CCCCCCCCCCCCO [Lauryl alcohol], the “Toxicity” value (human; Table V) is listed as “Low-toxicity” and the “Boiling Point” value [4] is listed as 255 °C.

In the case of C[S+](C)[O-] [DMSO, dimethylsulfoxide], the “decrease of radioactivity in bronchial epithelium, oral vs ip” value ([1]; given orally) is reported as “less decrease” and the “nitrosamine delocalization / inhibition” value [2] is reported as “found to delocalize nitrosamines”.

In the case of CCCCCCCCCCCCCCCCCCO [Stearyl alcohol, octadecanol], the “Toxicity” value (human; Table V) is given as “Non-toxic”, the “Toxicity” value (human) is given as “non-toxic” and the “Boiling Point” value [4] is given as 210 °C.

In the case of CCCCCCC(C)O (centres unmarked) [Capryl alcohol], the “Toxicity” value (human; Table V) is given as “Low toxity” and the “Boiling Point” value [4] is given as 178 °C.

For CCCC(C)O (centres unmarked) [2-pentanol], the “decrease in the localization” value [3] was “significant decrease”.

For CC(C)CO [isobutyl alcohol, isobutanol], the “Acute Oral LD50” value (rats; rats, oral) is listed as 2.46 q/kg and the “decrease in the localization” value [3] is listed as “significant decrease”.

For CC(C)[C@@H]1CC[C@@H](C)C[C@H]1O [1-menthol], the “response on the uptake of radioactivity” value [1] was “minimal response”.

With CC(C)(C)O [t-butanol] the “localization of [14C]NNN in bronchial epithelium” value ([6]; high dosage) was “almost completely abolished; also recorded: greatest inhibition”.

In the case of CCCCCCCCCCCCO [dodecanol, 98%, dodecanol], the “Acute Oral LD50” value (rats; rats, oral) is given as 40 q/kg.

In the case of [Se] [Selenium], the “effect on tumor development” value [7] is given as “inhibit tumor development”.

In the case of O=Cc1ccc2c(c1)OCO2 [piperonal], the “decrease in the localization” value [1] is reported as “significant decrease”.

In the case of CC1CCC(C(C)C)C(O)C1 (centres unmarked) [menthol, reference compound], the “Toxicity” value (human; Table V) is listed as “Flavor Agent”, the “Boiling Point” value [4] is listed as 216 °C and the “nitrosamine delocalization / inhibition” value [2] is listed as “does not have the same nitrosamine blocking effect; also recorded: does not inhibit nitrosamine localization”.

In the case of CC1CCCC(O)C1 (centres unmarked) [3-methylcyclohexanol], the boiling points [4] is listed as 174 °, the “potency compared with cyclohexanol” value ([5]; inhalation) is listed as “even more potent than cyclohexanol” and the “potency as inhibitor in mice” value [5] is listed as “among the most potent inhibitors”.

In the case of CC(C)(O)C(C)(C)O [Pinacol], the “Toxicity” value (human; Table V) is listed as “Low-toxicity” and the “Boiling Point” value [4] is listed as 174 °C.

With diaminopropane HCl the “response on the uptake of radioactivity” value [1] was “minimal response”.

In the case of CC(C)O [isopropyl alcohol, isopropanol], the “Acute Oral LD50” value (rats; rats, oral) is listed as 5.84 q/kg.

In the case of NCCCC(N)(C(=O)O)C(F)F (centres unmarked) [difluoromethylornithine], the “response on the uptake of radioactivity” value [1] is reported as “minimal response”.

For c1ccc2ccccc2c1 [naphthalene], the “decrease in the localization” value [1] was “significant decrease”.

In the case of CCC(CC)CO [2-Ethyl butyl alcohol], the “Toxicity” value (human; Table V) is given as “Low-toxicity” and the “Boiling Point” value [4] is given as 149 °C.

For vitamin E, the “effect on formation of nitrosamines on epithelial membranes” value [7] is listed as “prevent the formation of nitrosamines”.

For CCCCC(CC)CO (centres unmarked) [2-ethyl hexanol], the “Toxicity” value (human; Table V) is given as “Low-toxicity” and the “Acute Oral LD50” value (rats; rat, in vivo, po) is given as 3.2-7.1.

In the case of Dipropylene glycol monomethyl, the “Boiling Point” value [4] is given as 189 °C.

For CCC(C)CO (centres unmarked) [active amyl alcohol, 2-methyl-1-butanol], the “Acute Oral LD50” value (rats; rats, oral) is given as 4.9 q/kg and the “decrease in the localization” value [3] is given as “significant decrease”.

In the case of CCCCCCC(C)O (centres unmarked) [2-octanol], the boiling points [4] is listed as 180 °, the “effectiveness against NNN or NNK” value [2] is listed as “against NNK” and the “potency as inhibitor in mice” value [5] is listed as “among the most potent inhibitors”.

For O=C1O[C@H]([C@@H](O)CO)C(O)=C1O [Vitamin C, ascorbic acid], the “effect on formation of nitrosamines on epithelial membranes” value [7] is given as “prevent the formation of nitrosamines”.

For CC1=C(/C=C/C(C)=C/C=C/C(C)=C/C(=O)O)C(C)(C)CCC1 [retinoic acid], the “response on the uptake of radioactivity” value [1] was “minimal response”.

With CCO [ethanol] the “localization of radioactivity in salivary duct and bronchial epithelium and in both periportal and central areas of the liver” value ([6]; 20 min before iv [14C]NNN) was “reduced”.

In the case of CCCCCCCCO [n-Octyl alcohol], the “Toxicity” value (human; Table V) is listed as “Flavor agent” and the “Boiling Point” value [4] is listed as 86 °C.

In the case of [Cl-].[Na+] [sodium chloride, reference compound], the LD50 (rats; rats, oral, comparison) is listed as “about 3.75 g/Kg”.

For OCC=Cc1ccccc1 [Cinnamyl alcohol], the “Boiling Point” value [4] is listed as 257.5 °C.

With CC1=C(/C=C/C(C)=C/C=C/C(C)=C/CO)C(C)(C)CCC1 [retinol] the “response on the uptake of radioactivity” value [1] was “minimal response”.

In the case of C#CCN(C)Cc1ccccc1 [parqyline], the “response on the uptake of radioactivity” value [1] is reported as “minimal response”.

With CC(C)(C(=O)c1cccnc1)c1cccnc1 [metyrapone] the “decrease in the localization” value [1] was “significant decrease”.

In the case of NCCCCN [putrescine], the “response on the uptake of radioactivity” value [1] is reported as “minimal response”.

For Vitamin A, the “effect on tumor development” value [7] is given as “inhibit tumor development”.

For OCCC(O)CO (centres unmarked) [1,2,4-ButanetrioI, 1,2,4-butanetriol], the “Toxicity” value (human; Table V) is listed as “Non-toxic” and the “Boiling Point” value [4] is listed as 172 °C.

In the case of S=C=NCc1ccccc1 [benzyl isothiocyanate], the “nitrosamine delocalization / inhibition” value [2] is reported as “found to delocalize nitrosamines”.
